Patent US9708336B2, “Metallo-beta-lactamase inhibitors” (priority 2014, dated 2017)
pIC50: −log10 of the molar value. Read-outs that look alike come from different tables or passages of the source.

What was measured:
[1] = biological target: NDM-1 (Klebsiella pneumoniae, UniProt C7C422); experiment: biochemical; format: biochemical; settings: read-out: NDM-1 IC50
[2] = biological target: IMP-1 (Serratia marcescens, UniProt P52699); experiment: biochemical; format: biochemical; settings: read-out: IMP-1 IC50
Sequence of IMP-1 (P52699 whole entry, looked up): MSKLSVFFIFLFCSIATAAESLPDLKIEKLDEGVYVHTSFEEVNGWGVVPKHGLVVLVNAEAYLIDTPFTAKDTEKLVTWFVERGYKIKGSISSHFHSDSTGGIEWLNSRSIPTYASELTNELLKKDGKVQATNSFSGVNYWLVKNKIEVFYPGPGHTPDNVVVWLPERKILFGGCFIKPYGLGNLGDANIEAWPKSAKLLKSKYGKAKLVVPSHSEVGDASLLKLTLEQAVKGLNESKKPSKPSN

[3] = biological target: VIM-1 (Pseudomonas aeruginosa (strain ATCC 15692 / DSM 22644 / CIP 104116 / JCM 14847 / LMG 12228 / 1C / PRS 101 / PAO1), UniProt A0A0F7KYQ8); experiment: Enzyme activity: determination of IC50, fluorescence assay with CCF2-FA substrate (VIM-1); format: biochemical
[4] = tested on: Escherichia coli expressing NDM-1 (CLB30016); experiment: Antibiotic potentiation activity: synergistic concentration (MITC95) with imipenem, OD600 growth; format: cell-based
Procedure, shortened: (§1)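 Overnight colonies (35 °C) were suspended in saline, diluted 1:100 into 1.1× CAMHB, and exposed to test compound with imipenem at 4 μg/ml (optionally 1 μg/ml) in assay. After 22–24 h at 35 °C, growth was read by absorbance.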

[5] = tested on: Klebsiella pneumoniae expressing VIM-1 (IHMA599644); experiment: as above; format: cell-based
Procedure, shortened: as §1

[6] = tested on: Serratia marcescens expressing IMP-1 (CL5741); experiment: as above; format: cell-based
Procedure, shortened: as §1

[7] = NDM-1 enzyme, CCF2-FA substrate
[8] = IMP-1 enzyme, CCF2-FA substrate
[9] = VIM-1 enzyme, CCF2-FA substrate, read-out: VIM-1 IC50
[10] = (CLB30016, NDM-1), 95% growth inhibition
[11] = Klebsiella pneumoniae IHMA599644 (VIM-1), 95% growth inhibition
[12] = Serratia marcescens CL5741 (IMP-1), 95% growth inhibition
[13] = VIM-1 IC50, VIM-1 enzyme, CCF2-FA substrate
[14] = fluorescence assay with CCF2-FA substrate
[15] = CLB30016 (NDM-1), 95% inhibition of bacterial growth
[16] = IHMA599644 (VIM-1), 95% inhibition of bacterial growth
[17] = CL5741 (IMP-1), 95% inhibition of bacterial growth
[18] = NDM-1 enzyme, CCF2-FA fluorescence assay
[19] = IMP-1 enzyme, CCF2-FA fluorescence assay
[20] = VIM-1 enzyme, CCF2-FA fluorescence assay, read-out: VIM-1 IC50
[21] = Escherichia coli expressing NDM-1 (CLB30016), 95% growth inhibition
[22] = Klebsiella pneumoniae expressing VIM-1 (IHMA599644), 95% growth inhibition
[23] = Serratia marcescens expressing IMP-1 (CL5741), 95% growth inhibition

Sequence of NDM-1 (C7C422 whole entry, looked up, species assumed): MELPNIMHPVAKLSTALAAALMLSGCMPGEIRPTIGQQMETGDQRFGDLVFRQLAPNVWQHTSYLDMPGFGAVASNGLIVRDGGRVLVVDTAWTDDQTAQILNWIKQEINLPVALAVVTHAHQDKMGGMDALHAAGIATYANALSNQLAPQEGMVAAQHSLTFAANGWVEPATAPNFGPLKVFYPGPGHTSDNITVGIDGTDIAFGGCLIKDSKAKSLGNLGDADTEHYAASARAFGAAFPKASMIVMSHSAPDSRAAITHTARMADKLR

| SMILES | pIC50 [1, 7] | pIC50 [2, 8] | pIC50 [3, 9] | Escherichia coli MITC95 [4, 10] [µM] | Klebsiella pneumoniae MITC95 [5, 11] [µM] | Serratia marcescens MITC95 [6, 12] [µM] | other results |
| --- | --- | --- | --- | --- | --- | --- | --- |
| NS(=O)(=O)c1c(C(F)(F)F)ccc(-c2ccc3c(c2)CNCC3)c1-c1nnn[nH]1 [Example 720, 3-(1,2,3,4-tetrahydroisoquinolin-7-yl)-2-(1H-tetrazol-5-yl)-6-(trifluoromethyl)benzenesulfon-amide] | 8.52 | 7.79 | 8.98 | 6.25 | 3.125 | 12.5 | – |
| NS(=O)(=O)Cc1cccc(-c2ccc(C(F)(F)F)c(S(N)(=O)=O)c2-c2nnn[nH]2)c1 [Example 737, 3′-(sulfamoylmethyl)-2-(1H-tetrazol-5-yl)-4-(trifluoromethyl)biphenyl-3-sulfonamide] | 8.31 | 8.52 | – | 6.25 | 25 | 3.125 | pIC50 [3, 13]: 8.37 |
| NCC1CCN(c2ccc(C(F)(F)F)c(S(N)(=O)=O)c2-c2nnn[nH]2)CC1 [Example 821, 3-[4-(aminomethyl)-1-piperidyl]-2-(1H-tetrazol-5-yl)-6-(trifluoromethyl)benzenesulfonamide] | – | – | – | – | – | – | pIC50 [1, 14]: 7.74; pIC50 [2, 14]: 7.26; pIC50 ([3]; VIM-1 IC50, fluorescence assay with CCF2-FA substrate): 9.30; Escherichia coli MITC95 [4, 15]: 12.5 µM; Klebsiella pneumoniae MITC95 [5, 16]: 12.5 µM; Serratia marcescens MITC95 [6, 17]: 6.25 µM |
| NS(=O)(=O)c1c(CC[C@H]2CC[C@H](N)CC2)ccc(-c2ccc(C3CCNC3)cc2)c1-c1nnn[nH]1 (stereo partly drawn) [Example 584, 4-(2-((1r,4s)-4-aminocyclohexyl)ethyl)-4′-(pyrrolidin-3-yl)-2-(1H-tetrazol-5-yl)-[1,1′-biphenyl]-3-sulfonamide] | 8.69 | 7.99 | 8.79 | 1.563 | 6.25 | 1.563 | – |
| NS(=O)(=O)c1c(C(F)(F)F)ccc(N2CCCC(CO)C2)c1-c1nnn[nH]1 (stereo not drawn) [Example 659, 3-[3-(hydroxymethyl)piperidin-1-yl]-2-(1H-tetrazol-5-yl)-6-(trifluoromethyl)benzenesulfonamide] | 7.73 | 7.44 | 8.19 | 15.63 | 25 | 2.344 | – |
| NS(=O)(=O)c1c(C(F)(F)F)ccc(-c2ccc3c(c2)CNC3)c1-c1nnn[nH]1 [Example 715, 3-(2,3-dihydro-1H-isoindol-5-yl)-2-(1H-tetrazol-5-yl)-6-(trifluoromethyl)benzenesulfon-amide] | 7.60 | 7.56 | 9.14 | 6.25 | 3.125 | 12.5 | – |
| Nc1nc(-c2ccc(-c3ccc(C(F)(F)F)c(S(N)(=O)=O)c3-c3nnn[nH]3)cc2)cs1 [Example 732, 4′-(2-amino-1,3-thiaozl-4-yl)-2-(1H-tetrazol-5-yl)-4-(trifluoromethyl)biphenyl-3-sulfonamide] | 9.27 | 9.42 | 9.16 | 0.7813 | 25 | 3.125 | – |
| Nc1nc2c(-c3ccc(CC4CNC4)c(S(N)(=O)=O)c3-c3nn[nH]n3)cccc2s1 [Example 545, 3-(2-aminobenzo[d]thiazol-4-yl)-6-(azetidin-3-ylmethyl)-2-(2H-tetrazol-5-yl)benzenesulfonamide] | 8.56 | 7.66 | – | 0.7813 | 3.125 | 3.125 | pIC50 [3, 13]: 8.11 |
| N=C(N)NC1Cc2ccc(-c3ccc(C(F)(F)F)c(S(N)(=O)=O)c3-c3nn[nH]n3)cc2C1 (stereo not drawn) [Example 447, 3-(2-guanidino-2,3-dihydro-1H-inden-5-yl)-2-(2H-tetrazol-5-yl)-6-(trifluoromethyl)benzenesulfonamide] | – | – | – | – | – | – | pIC50 [1, 18]: 8.15; pIC50 [2, 19]: 8.37; pIC50 [3, 20]: 9.77; Escherichia coli MITC95 [4, 21]: 1.086 µM; Klebsiella pneumoniae MITC95 [5, 22]: 0.8906 µM; Serratia marcescens MITC95 [6, 23]: 0.125 µM |
| NC(=O)c1ccc(-c2ccc(C(F)(F)F)c(S(N)(=O)=O)c2-c2nn[nH]n2)cn1 [Example 527, 5-(3-Sulfamoyl-2-(2H-tetrazol-5-yl)-4-(trifluoromethyl)phenyl)picolinamide] | 8.15 | 7.97 | 8.54 | 6.25 | 12.5 | 12.5 | – |
| NS(=O)(=O)c1c(C(F)(F)F)ccc(-c2cnc3ccoc3c2)c1-c1nnn[nH]1 [Example 711, 3-furo[3,2-b]pyridin-6-yl-2-(1H-tetrazol-5-yl)-6-(trifluoromethyl)benzenesulfon-amide] | 8.99 | 8.45 | 9.65 | 6.25 | 6.25 | 12.5 | – |
| Cc1nc(N)ccc1Cc1cccc(S(N)(=O)=O)c1-c1nn[nH]n1 [Example 572, 3-((6-amino-2-methylpyridin-3-yl)methyl)-2-(2H-tetrazol-5-yl)benzenesulfonamide] | 7.83 | 6.15 | 8.05 | 0.5859 | 6.25 | 25 | – |
| NCCc1cccc(-c2ccc(C(F)(F)F)c(S(N)(=O)=O)c2-c2nnn[nH]2)c1 [Example 734, 3′-(2-aminoethyl)-2-(1H-tetraozl-5-yl)-4-(trifluoromethyl)biphenyl-3-sulfonamide] | 7.50 | 7.46 | 8.49 | 12.5 | 12.5 | 25 | – |
| NS(=O)(=O)c1c(C(F)(F)F)ccc(-c2ccc(C3CCN(C4CCNC4)CC3)cc2)c1-c1nnn[nH]1 (stereo not drawn) [Example 789, 4′-(1-pyrrolidin-3-ylpiperidin-4-yl)-2-(1H-tetrazol-5-yl)-4-(trifluoromethyl)biphenyl-3-sulfonamide] | – | – | – | – | – | – | pIC50 [1, 14]: 8.62; pIC50 [2, 14]: 9.33; pIC50 ([3]; fluorescence assay with CCF2-FA substrate, read-out: VIM-1 IC50): 7.78; Escherichia coli MITC95 [4, 15]: 3.125 µM; Klebsiella pneumoniae MITC95 [5, 16]: 100 µM; Serratia marcescens MITC95 [6, 17]: 3.125 µM |
| NS(=O)(=O)c1c(CC2CCNCC2)ccc(-c2ccc(C3CN(CCO)C3)cc2)c1-c1nn[nH]n1 [Example 608, 3-[4-[1-(2-hydroxyethyl)azetidin-3-yl]phenyl]-6-(4-piperidylmethyl)-2-(2H-tetrazol-5-yl)benzenesulfonamide] | 7.52 | 6.90 | 7.35 | 6.25 | 6.25 | 6.25 | – |
| Cc1nc(CNCc2ccc(-c3cccc(S(N)(=O)=O)c3-c3nnn[nH]3)cc2)no1 [Example 360, 4′-({[(5-methyl-1,2,4-oxadiazol-3-yl)methyl]amino}methyl)-2-(1H-tetrazol-5-yl)biphenyl-3-sulfonamide] | – | – | – | – | – | – | pIC50 [1, 18]: 8.82; pIC50 [2, 19]: 7.42; pIC50 [3, 20]: 6.64; Escherichia coli MITC95 [4, 21]: 2.344 µM; Klebsiella pneumoniae MITC95 [5, 22]: >200 µM; Serratia marcescens MITC95 [6, 23]: 2.344 µM |
| NS(=O)(=O)c1cccc(-c2ccnc3ncccc23)c1-c1nnn[nH]1 [Example 406, 3-(1,8-naphthyridin-4-yl)-2-(1H-tetrazol-5-yl)benzenesulfonamide] | – | – | – | – | – | – | pIC50 [1, 18]: 8.78; pIC50 [2, 19]: 6.60; pIC50 [3, 20]: 8.76; Escherichia coli MITC95 [4, 21]: 1.172 µM; Klebsiella pneumoniae MITC95 [5, 22]: 3.125 µM; Serratia marcescens MITC95 [6, 23]: 6.25 µM |
| CN(CCCCN)c1nc2c(-c3cccc(S(N)(=O)=O)c3-c3nnn[nH]3)cccc2s1 [Example 645, 3-[2-[4-aminobutyl(methyl)amino]-1,3-benzothiazol-4-yl]-2-(1H-tetrazol-5-yl)benzenesulfonamide] | 8.94 | 7.05 | – | 1.563 | 50 | 100 | pIC50 [3, 13]: 8.28 |
| NC(=O)c1nccc2cc(-c3cccc(S(N)(=O)=O)c3-c3nn[nH]n3)ccc12 [Example 281, 6-(3-sulfamoyl-2-(2H-tetrazol-5-yl)phenyl)isoquinoline-1-carboxamide] | – | – | – | – | – | – | pIC50 [1, 18]: 9.47; pIC50 [2, 19]: 7.37; pIC50 [3, 20]: 7.92; Escherichia coli MITC95 [4, 21]: 0.7813 µM; Klebsiella pneumoniae MITC95 [5, 22]: 12.5 µM; Serratia marcescens MITC95 [6, 23]: 3.125 µM |
